From US12285393B2, “Roles of modulators of intersectin-Cdc42 signaling in Alzheimer's disease” (priority 2017, dated 2025)

Columns and labels:
Cdc42 [1] = target: T1, Cdc42 (Homo sapiens, UniProt P60953); assay: Rho-GEF IC50 assay (GEF/DH domain-mediated mant-GTP binding); format: biochemical; set-up: purchased Cytoskeleton Inc; details: read-out: IC50, GEF/DH domain-mediated mant-GTP binding/Cdc42 activation
Experimental: (§1) Rho-GEF IC50 Assay: Rho-GEF assay (Cytoskeleton Inc., Denver, Colorado, United States of America) was conducted per manufacturer's instructions (λex=360 nm, λem=460 nm). Briefly, a solution (50 μL) of purified Rho GTPase (1 μM) and mant-GTP (1.5 μM) with or without compound (0.001-500 μM) was prepared and the absorbance monitored for 10-30 min to obtain the background/baseline. The addition of purified GEF/DH domain (0.08-0.2 μM) was carried out simultaneously and the absorbance was recorded for 30-45 min. The linear slope following the addition of the GEF was calculated and expressed as percentage of the control and plotted on an IC50 curve.
Target sequence in this assay (P60953 whole entry, the tested form may be a part): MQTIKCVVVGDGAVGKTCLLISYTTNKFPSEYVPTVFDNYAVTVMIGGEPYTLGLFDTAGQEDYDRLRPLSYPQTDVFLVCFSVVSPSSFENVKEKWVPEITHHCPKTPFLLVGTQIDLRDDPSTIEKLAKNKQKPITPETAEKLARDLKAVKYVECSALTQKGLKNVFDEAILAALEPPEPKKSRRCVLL

Rac1 [2] = target: T2, Rac1 (Homo sapiens, UniProt P63000); assay: as above; format: biochemical
T2 construct: purchased Cytoskeleton Inc
Experimental: as §1

RhoA = target: T3, RhoA (Homo sapiens, UniProt P61586); assay: as above; format: biochemical
T3 construct: purchased Cytoskeleton Inc
T3 sequence (P61586 whole entry): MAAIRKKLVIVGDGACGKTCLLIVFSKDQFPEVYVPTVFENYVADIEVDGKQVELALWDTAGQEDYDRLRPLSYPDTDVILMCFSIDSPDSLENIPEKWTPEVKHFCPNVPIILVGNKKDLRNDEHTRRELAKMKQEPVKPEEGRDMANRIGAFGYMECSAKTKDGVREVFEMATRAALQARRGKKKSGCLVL
Experimental: as §1

GTP-bound (active) Cdc42 = target: T4, GTP-bound (active) Cdc42 (Mus musculus, UniProt P60766); assay: G-LISA in serum-starved Swiss 3T3 cells; format: cell-based; details: 50 μM
T4 construct: endogenous in cells; host or cells: Swiss 3T3 cells
T4 sequence (P60766 whole entry): as the sequence (P60953 whole entry, the tested form may be a part) above
Experimental: G-LISA: G-LISA is an ELISA-based assay that allows a quantitative determination of the levels of GTP-bound (active) Cdc42 in cellular lysates. Swiss 3T3 cells (˜50% confluent) were starved for 24h then treated with ZCL278 (50 μM) for 0, 5, 10, 15, 30, or 60 m. Cells were lysed and G-LISA conducted according to Cytoskeleton G-LISA protocol. Briefly, ˜300 μL of lysis buffer was added, cells were scraped, transferred to a centrifuge tube, and centrifuged at 0° C. for 1 min at 13,200 rpm. Samples were flash frozen in liquid nitrogen. Approximately […] protein was loaded into duplicate wells for G-LISA. Absorbance was measured at 490 nm.

Rac1 [3] = target: T5, Rac1 (Mus musculus, UniProt P63001); assay: G-LISA in serum-starved Swiss 3T3 cells; format: cell-based; details: 50 μM
T5 construct: endogenous in cells; host or cells: Swiss 3T3 cells

Cdc42 [4] = target: T1, Cdc42; assay: Cdc42-GEF-assay, additional compound screening; format: biochemical; set-up: purchased Cytoskeleton Inc; details: percentages of ZCL278 activity normalized to batch; more than 100% = more potent activator; Table 9
Experimental: as §1
Target sequence in this assay (P60953 whole entry, the tested form may be a part): as above
Cdc42 (1 μM) was incubated with mant-GTP (1.5 μM) and varying concentrations of ZCL278, ZCL279, or ZCL367 (5-500 μM). Fluorescent readings were taken every minute for 10 m to acquire the baseline. The GEF/DH domain (0.08-0.2 μM) was added followed by readings taken every minute for another 30 m. The linear phase was calculated from within the time period of 12-22 m. Cdc42 (1 μM) was incubated with mant-GTP (1.5 μM) and varying concentrations of ZCL278, ZCL279, or ZCL367 (5-500 μM). Fluorescent readings were taken every minute for 30 m to monitor the binding of mant-GTP in the absence of GEF/DH domain.
Cdc42-GEF-assays were conducted on additional screening compounds in batches of 9 compounds per batch as described above in Example 2 using ZCL278 and ZCL367 as standards. Screening compounds were taken from the Specs Chemistry Database of 197,000 compounds for small molecule or the National Cancer Institute Compound Library. […] These compounds promote Cdc42-mantGTP binding without GEF. It is possible that these compounds can inhibit Cdc42-mantGTP binding with GEF. […] These compounds appear to have activity like ZCL279. […] However, upon the addition of GEF, the compounds appear to facilitate the binding of mantGTP to Cdc42 (high assay slope, relative to ZCL278)

Cdc42 [5] = target: T1, Cdc42; details: in the presence of activating upstream signaling compounds; cited from earlier work
Target sequence in this assay (P60953 whole entry, species assumed, the tested form may be a part): as the sequence (P60953 whole entry, the tested form may be a part) above

3×Tg-AD mice = assay: Nesting test; format: in vivo; details: 3×Tg AD mouse model; 20 μg/g I.P. once a week, 4 weeks
Text: Six-month-old C57/BL6 (WT) and 3×Tg-AD mice with an average weight of 24 g from Jackson Laboratory (Bar Harbor, Maine, United States of America) were used. The 3×Tg-AD mice in hybrid 129/C57BL/6 background contain two mutant human transgenes, hAPP harboring Swedish mutation (hAPPswe) and mutant htau (htau301L) under a neuron-specific promoter, and also contain the knock-in mutant presenilin 1 (PS1M146V). See Oddo et al. (2003) Neuron 39:409-421). 3×Tg-AD mice were received from Jackson Laboratory as Psen1 B6:129-Psen1<tmMpm>Tg(APPSwetauP301L)1Lfa/J and the wild type control as SF2: (B6129SF1/J+p+Tyr-c+Mgf-SIJ)F2. All mice were subjected to two weeks of training for familiarizing behavioral test procedures. […]
Nesting test: Similar to the burrowing test, 2.5 hours before the start of the dark cycle, mice were housed singly in cages containing one 5 cm square of pressed cotton (‘Nestlet’, which the mice normally received as part of their environmental enrichment) with which to make a nest. The condition of each nest was assessed after 2 hours, according to a four-point scale as follows: • 1=Nestlet not noticeably touched (>90% intact). • 2=Nestlet partially tom up (70-90% remaining intact). • 3=Mostly shredded but often no identifiable nest site (<50% remaining intact). • 4=An identifiable nest (<10% remaining intact).

SMILES: Cc1cc(C)nc(NS(=O)(=O)c2ccc(NC(=S)NC(=O)COc3ccc(Br)cc3Cl)cc2)n1 [ZCL278, 4-(3-(2-(4-bromo-2-chloro-phenoxy)-acetyl)-thioureido)-N-(4,6-dimethylpyrimidin-2-yl)-benzenesulfonamide]
- IC50 (Cdc42 [1]): 7.52 µM
- IC50 (Rac1 [2]): ≥ 500 µM
- IC50 (RhoA): ≥ 500 µM
- effect on GTP-bound (active) Cdc42 (GTP-bound (active) Cdc42; 0-60 m, serum-starved Swiss 3T3 cells): activates Cdc42
- time of Cdc42 activity peak (GTP-bound (active) Cdc42; another peak): about 60 min
- time of Cdc42 activity peak (GTP-bound (active) Cdc42; first peak): Approximately 15 min
- effect on Rac1 (Rac1 [3]): inhibits Rac1
- % ZCL278 (activator activity) (Cdc42 [4]): 100%
- effect on Cdc42 (Cdc42 [5]): inhibit Cdc42

SMILES: O=S(=O)(Nc1ccccc1O)c1ccc2oc3ccc(S(=O)(=O)Nc4ccccc4O)cc3c2c1 [ZCL279, N^2,N^8-bis(2-hydroxyphenyl)dibenzo[b,d]furan-2,8-disulfonamide]
- instinctual behavior: nesting behavior (3×Tg-AD mice): improve instinctual behavior
